Data: patent publication US11970493B2, “Autotaxin inhibitor compounds” (ILDONG PHARMACEUTICAL CO., LTD., priority 2020, dated 2024)
pIC50: −log10 of the molar value.

Target: hATX/ENPP2 (Homo sapiens, UniProt Q13822)
Test: hATX/ENPP2 biochemical assay using 16:0-LPC as substrate (Amplex Red/choline oxidase/HRP fluorescence)
Conditions: hENPP2 2.5 nM, LPC (16:0) substrate
Experimental: The enzyme is diluted in 50 mM Tris-HCl pH 8.0, 140 mM NaCl, 5 mM CaCl2, 0.01% Triton X-100 in a total volume of 5 μL. The aqueous solution of enzyme is added to the wells and incubated with different concentrations of the compounds at room temperature for 15 min. The reaction is started by the addition of 5 μL of 80 μM LPC (16:0) and 10 μL of the detection mixture containing 200 μM Amplex Red, 10 U/mL choline oxidase and 4 U/mL HRP. Fluorescence at 590 nm was measured kinetically with excitation at 530 nm. The slope of the curve (from 60 to 70 min of the reaction time) was used to calculate the compounds' IC50 values.

SMILES | pIC50
CCc1nc2ccc(-c3cnc(NC4CCN(C(=O)C5(O)CC5)CC4)nc3)cn2c1N(C)c1nc(-c2ccc(F)cc2)c(C#N)s1 [Compound 21, 2-((2-ethyl-6-(2-((1-(1-hydroxycyclopropane-1-carbonyl)piperidin-4-yl)amino)pyrimidin-5-yl)imidazo[1,2-a]pyridin-3-yl)(methyl)amino)-4-(4-fluorophenyl) thiazole-5-carbonitrile] | 6.70 to 7.70
CCc1nc2ccc(-c3cnc(NC4CCNCC4)nc3)cn2c1N(C)c1nc(-c2ccc(F)cc2)c(C#N)s1 [Compound 22, 2-((2-ethyl-6-(2-(piperidin-4-ylamino)pyrimidin-5-yl)imidazo[1,2-a]pyridin-3-yl)(methyl)amino)-4-(4-fluorophenyl)thiazole-5-carbonitrile] | < 6.70
CCc1nc2ccc(-c3cnc(N4CC(NC(=O)[C@H]5C[C@H](O)CN5)C4)nc3)cn2c1N(C)c1nc(-c2ccc(F)cc2)c(C#N)s1 [Compound 23, (2R,4S)—N-(1-(5-(3-((5-cyano-4-(4-fluorophenyl)thiazol-2-yl)(methyl)amino)-2-ethylimidazo[1,2-a]pyridin-6-yl)pyrimidin-2-yl)azetidin-3-yl)-4-hydroxypyrrolidine-2-carboxamide] | 6.70 to 7.70
CCc1nc2ccc(-c3cnc(N4CC(NC(=O)[C@@H]5C[C@H](O)CN5)C4)nc3)cn2c1N(C)c1nc(-c2ccc(F)cc2)c(C#N)s1 [Compound 24, (2S,4S)—N-(1-(5-(3-((5-cyano-4-(4-fluorophenyl)thiazol-2-yl)(methyl)amino)-2-ethylimidazo[1,2-a]pyridin-6-yl)pyrimidin-2-yl)azetidin-3-yl)-4-hydroxy pyrrolidine-2-carboxamide] | 6.70 to 7.70
CCc1nc2ccc(-c3cnc(N4CC(NC(=O)[C@H]5C[C@@H](O)CN5)C4)nc3)cn2c1N(C)c1nc(-c2ccc(F)cc2)c(C#N)s1 [Compound 25, (2R,4R)—N-(1-(5-(3-((5-cyano-4-(4-fluorophenyl)thiazol-2-yl)(methyl)amino)-2-ethylimidazo[1,2-a]pyridin-6-yl)pyrimidin-2-yl)azetidin-3-yl)-4-hydroxypyrrolidine-2-carboxamide] | 6.70 to 7.70
CCc1nc2ccc(-c3cnc(N4CC(NC(=O)[C@@H]5C[C@@H](O)CN5)C4)nc3)cn2c1N(C)c1nc(-c2ccc(F)cc2)c(C#N)s1 [Compound 26, (2S,4R)—N-(1-(5-(3-((5-cyano-4-(4-fluorophenyl)thiazol-2-yl)(methyl)amino)-2-ethylimidazo[1,2-a]pyridin-6-yl)pyrimidin-2-yl)azetidin-3-yl)-4-hydroxypyrrolidine-2-carboxamide] | 6.70 to 7.70
CCc1nc2ccc(-c3cnc(N4CC(NC5CNC5)C4)nc3)cn2c1N(C)c1nc(-c2ccc(F)cc2)c(C#N)s1 [Compound 27, 2-((6-(2-(3-(azetidin-3-ylamino)azetidin-1-yl)pyrimidin-5-yl)-2-ethylimidazo[1,2-a]pyridin-3-yl)(methyl)amino)-4-(4-fluorophenyl)thiazole-5-carbonitrile] | 6.70 to 7.70
CCc1nc2ccc(-c3cnc(N4CC(NC5(C#N)CC5)C4)nc3)cn2c1N(C)c1nc(-c2ccc(F)cc2)c(C#N)s1 [Compound 28, 2-((6-(2-(3-((1-cyanocyclopropyl)amino)azetidin-1-yl)pyrimidin-5-yl)-2-ethylimidazo[1,2-a]pyridin-3-yl)(methyl)amino)-4-(4-fluorophenyl)thiazole-5-carbonitrile] | 6.70 to 7.70
CCc1nc2ccc(-c3cnc(N4CC(NC(=O)C5(C#N)CC5)C4)nc3)cn2c1N(C)c1nc(-c2ccc(F)cc2)c(C#N)s1 [Compound 29, 1-cyano-N-(1-(5-(3-((5-cyano-4-(4-fluorophenyl)thiazol-2-yl)(methyl)amino)-2-ethylimidazo[1,2-a]pyridin-6-yl)pyrimidin-2-yl)azetidin-3-yl)cyclopropane-1-carboxamide] | 6.70 to 7.70
CCc1nc2ccc(-c3cnc(N4CC(NC(=O)C5(O)CC5)C4)nc3)cn2c1N(C)c1nc(-c2ccc(F)cc2)c(C#N)s1 [Compound 31, N-(1-(5-(3-((5-cyano-4-(4-fluorophenyl)thiazol-2-yl)(methyl)amino)-2-ethylimidazo[1,2-a]pyridin-6-yl)pyrimidin-2-yl)azetidin-3-yl)-1-hydroxycyclopropane-1-carboxamide] | 6.70 to 7.70
CCc1nc2ccc(-c3cnc(N4CC(C(=O)NC5(C#N)CC5)C4)nc3)cn2c1N(C)c1nc(-c2ccc(F)cc2)c(C#N)s1 [Compound 32, 1-(5-(3-((5-cyano-4-(4-fluorophenyl)thiazol-2-yl)(methyl)amino)-2-ethylimidazo[1,2-a]pyridin-6-yl)pyrimidin-2-yl)-N-(1-cyanocyclopropyl)azetidine-3-carboxamide] | ≥ 7.70
CCc1nc2ccc(-c3cnc(N4CC(C(=O)NC5(CO)CC5)C4)nc3)cn2c1N(C)c1nc(-c2ccc(F)cc2)c(C#N)s1 [Compound 33, 1-(5-(3-((5-cyano-4-(4-fluorophenyl)thiazol-2-yl)(methyl)amino)-2-ethylimidazo[1,2-a]pyridin-6-yl)pyrimidin-2-yl)-N-(1-(hydroxylmethyl)cyclopropyl)azetidine-3-carboxamide] | ≥ 7.70
CCc1nc2ccc(-c3cnc(NC4CNC4)nc3)cn2c1N(C)c1nc(-c2ccc(F)cc2)c(C#N)s1 [Compound 34, 2-((6-(2-(azetidin-3-ylamino)pyrimidin-5-yl)-2-ethylimidazo[1,2-a]pyridin-3-yl)(methyl)amino)-4-(4-fluorophenyl)thiazole-5-carbonitrile] | < 6.70
CCc1nc2ccc(-c3cnc(NC4CN(C(=O)C5(O)CC5)C4)nc3)cn2c1N(C)c1nc(-c2ccc(F)cc2)c(C#N)s1 [Compound 35, 2-((2-ethyl-6-(2-((1-(1-hydroxycyclopropane-1-carbonyl)azetidin-3-yl)amino)pyrimidin-5-yl)imidazo[1,2-a]pyridin-3-yl) (methyl)amino)-4-(4-fluorophenyl)thiazole-5-carbonitrile] | 6.70 to 7.70
CCc1nc2ccc(-c3cnc(NC4CN(C(=O)C5CNC5)C4)nc3)cn2c1N(C)c1nc(-c2ccc(F)cc2)c(C#N)s1 [Compound 36, 2-((6-(2-((1-(azetidine-3-carbonyl)azetidin-3-yl)amino)pyrimidin-5-yl)-2-ethylimidazo[1,2-a]pyridin-3-yl)(methyl)amino)-4-(4-fluorophenyl) thiazole-5-carbonitrile] | 6.70 to 7.70
CCc1nc2ccc(-c3cnc(NC4CN(C(=O)N5CC(O)C5)C4)nc3)cn2c1N(C)c1nc(-c2ccc(F)cc2)c(C#N)s1 [Compound 37, 2-((2-ethyl-6-(2-((1-(3-hydroxyazetidine-1-carbonyl)azetidin-3-yl)amino)pyrimidin-5-yl)imidazo[1,2-a]pyridin-3-yl)(methyl)amino)-4-(4-fluorophenyl)thiazole-5-carbonitrile] | 6.70 to 7.70
CCc1nc2ccc(-c3cnc(NCC4CN(C(=O)N5CC(O)C5)C4)nc3)cn2c1N(C)c1nc(-c2ccc(F)cc2)c(C#N)s1 [Compound 39, 2-((2-ethyl-6-(2-(((1-(3-hydroxyazetidine-1-carbonyl)azetidin-3-yl)methyl)amino)pyrimidin-5-yl)imidazo[1,2-a]pyridin-3-yl)(methyl)amino)-4-(4-fluorophenyl)thiazole-5-carbonitrile] | 6.70 to 7.70
CCc1nc2ccc(-c3cnc(NCC4CN(C(=O)C5CNC5)C4)nc3)cn2c1N(C)c1nc(-c2ccc(F)cc2)c(C#N)s1 [Compound 40, 2-((6-(2-(((1-(azetidine-3-carbonyl)azetidin-3-yl)methyl)amino)pyrimidin-5-yl)-2-ethylimidazo[1,2-a]pyridin-3-yl)(methyl)amino)-4-(4-fluorophenyl)thiazole-5-carbonitrile] | < 6.70
CCc1nc2ccc(-c3cnc(NCC4CN(C(=O)C5(O)CC5)C4)nc3)cn2c1N(C)c1nc(-c2ccc(F)cc2)c(C#N)s1 [Compound 41, 2-((2-ethyl-6-(2-(((1-(1-hydroxycyclopropane-1-carbonyl)azetidin-3-yl)methyl)amino)pyrimidin-5-yl)imidazo[1,2-a]pyridin-3-yl)(methyl)amino)-4-(4-fluorophenyl)thiazole-5-carbonitrile] | 6.70 to 7.70
CCc1nc2ccc(-c3cnc(N4CCN(CC(=O)N5CC[C@@H](O)C5)CC4)nc3)cn2c1N(C)c1nc(-c2ccc(F)cc2)c(C#N)s1 [Compound 45, (R)-2-((2-ethyl-6-(2-(4-(2-(3-hydroxypyrrolidin-1-yl)-2-oxoethyl)piperazin-1-yl)pyrimidin-5-yl)imidazo[1,2-a]pyridin-3-yl)(methyl)amino)-4-(4-fluorophenyl)thiazole-5-carbonitrile] | ≥ 7.70
CCc1nc2ccc(-c3cnc(N4CCN(CC(=O)N5CC[C@H](O)C5)CC4)nc3)cn2c1N(C)c1nc(-c2ccc(F)cc2)c(C#N)s1 [Compound 46, (S)-2-((2-ethyl-6-(2-(4-(2-(3-hydroxypyrrolidin-1-yl)-2-oxoethyl)piperazin-1-yl)pyrimidin-5-yl)imidazo[1,2-a]pyridin-3-yl)(methyl)amino)-4-(4-fluorophenyl)thiazole-5-carbonitrile] | ≥ 7.70
CCc1nc2ccc(-c3cnc(C(=O)N4CC[C@H](O)C4)nc3)cn2c1N(C)c1nc(-c2ccc(F)cc2)c(C#N)s1 [Compound 48, (S)-2-((2-ethyl-6-(2-(3-hydroxypyrrolidine-1-carbonyl)pyrimidin-5-yl)imidazo[1,2-a]pyridin-3-yl)(methyl)amino)-4-(4-fluorophenyl) thiazole-5-carbonitrile] | 6.70 to 7.70
CCc1nc2ccc(-c3cnc(C(=O)N4CC[C@@H](O)C4)nc3)cn2c1N(C)c1nc(-c2ccc(F)cc2)c(C#N)s1 [Compound 49, (R)-2-((2-ethyl-6-(2-(3-hydroxypyrrolidine-1-carbonyl)pyrimidin-5-yl)imidazo[1,2-a]pyridin-3-yl)(methyl)amino)-4-(4-fluorophenyl) thiazole-5-carbonitrile] | 6.70 to 7.70
